Laboratory results reported in a melting point compilation (Tetko et al.; mined from patent text by program, amines drawn as free bases though some values may be those of a salt).

Row | Structure (SMILES) | melting point
1 | Cc1ccc(C2CC(=O)CC(c3ccc(C)cc3)N2C)cc1 (stereo not given) | 105 to 107 °C
2 | CNCC[C@H](O)c1cccs1 | 68 to 70 °C
3 | O=C(O)Cc1ccc(OCc2ccccc2)c(OCCc2ccccc2)c1 | 110 to 112 °C
4 | OCCCc1cncn1Cc1noc2ccccc12 | 129 to 131 °C
5 | COc1ccc(Cn2c(=O)c(C(=O)NC3CCCCC3)c(O)c3cc(Cl)cnc32)cc1 | 193 °C
6 | NS(=O)(=O)c1cscc1C(=O)Cl | 236 to 238 °C
7 | CP(C)(=O)C(O)C(N)=O (stereo not given) | 155 °C
8 | Cc1c(C)c2c(c(C)c1O)CC(CCO)O2 (racemic) | 123 to 125 °C
9 | Cn1cncc1C(O)(c1cccc(I)c1)c1ccc2c(c1)c(-c1cccc(Cl)c1)cc(=O)n2C (stereo not given) | 226 °C
10 | COc1n[nH]cc1-c1ccccc1 | 150 °C
11 | COC(=O)C(CC(F)(F)F)Nc1nc(-c2ccc(Br)cc2)cs1 (stereo not given) | 113 to 114 °C
12 | N#Cc1cc2nc(O)c(O)nc2c2ccccc12 | > 300 °C
13 | O=C(O)C(Cc1cnc2cc(OCc3ccc(Cl)cc3)ccc2c1)Sc1ccccc1 (stereo not given) | 157 to 158 °C
14 | CSC(=NC(C)=O)N(C)N=Cc1ccccc1 | 102 to 104 °C
15 | Cc1oc(-c2ccc(-c3ccc(-c4nc(CCO)c(C)o4)cc3)cc2)nc1CCO | 134 to 135 °C
16 | N#Cc1ccc(C(F)(F)F)cc1N=NNc1cc(C(F)(F)F)ccc1C#N | 183 to 184 °C
17 | C=CCOc1cc([N+](=O)[O-])ccc1[N+](=O)[O-] | 66.5 to 68 °C
18 | Nc1c(Cl)cc(C(O)CNCCCCCCOCCCCCCc2ccc3ccccc3n2)cc1Cl (stereo not given) | 62.3 to 64.7 °C
19 | CC(C)N(C[C@@H](O)[C@@H](C(=O)[C@H](CC(N)=O)NC(=O)c1ccccc1)C(N)c1ccccc1)NC(=O)OC(C)(C)C (stereo not given in full) | 182 to 185 °C
20 | OCCOc1ccc(C=Cc2ncn(CC(O)(Cn3cncn3)c3ccc(F)cc3F)n2)cc1 (stereo not given) | 152 to 155 °C
21 | Fc1ccc(Cn2c(NC3CCN(C4CCCN(Cc5ccccc5)C4)CC3)nc3ccccc32)cc1 (stereo not given) | 175 °C
22 | C#CCc1c(C)nc2c(NCc3ccccc3C)cccn12 | 126 to 128 °C
23 | CC(CN(C)C)CC(CNC(=O)NCCCl)(c1ccc(F)cc1)c1ccc(F)cc1 (stereo not given) | 105 to 107 °C

Row | Structure (SMILES) | melting point
24 | CC(C)c1nc(C(O)(C(F)(F)F)C(F)(F)F)[nH]c1-c1ccccc1 | 80 to 81 °C
25 | O=C(Nc1nccs1)c1nc(-c2cccc3ccccc23)[nH]c1-c1ccc(F)cc1 | 218 to 220 °C
26 | CN(C)CCCCC(=O)NC(Cc1c[nH]c2ccccc12)C(=O)CCc1cc(C(F)(F)F)cc(C(F)(F)F)c1 (stereo not given) | 140 °C
27 | CSc1ncc2ccc(=O)n(C)c2n1 | 192 to 193 °C
28 | NS(=O)(=O)c1ccc(-c2cc(-c3nc(-c4ccc(F)cc4)cc(C(F)(F)F)n3)ccn2)s1 | 282 °C
29 | O=C(Cn1c(-c2ccccc2)ccc(NC(=O)OCc2ccc(C(=O)O)cc2)c1=O)NC(Cc1ccccc1)C(=O)C(F)(F)F (stereo not given) | 214 to 216 °C
30 | CN1C(=O)C2CCCN2Cc2cc(Cl)ccc21 (stereo not given) | 97 to 99 °C
31 | O=C(O)C=CC(=O)NCCCCCCCCCCCCCCCCCCCC(=O)O | 146 to 148 °C
32 | c1ccc(Cc2cccnn2)cc1 | 61 to 64 °C
33 | Cc1ccc2c(c1C)OC(C(F)(F)F)C(C(=O)O)=C2 (stereo not given) | 245 to 247 °C
34 | O=C1CCCCCN1CNC(=S)NCN1CCCC1=O | 147 to 148 °C
35 | CCCCCCCCCCCCn1nnnc1CCC(=O)OC | 43 to 45 °C
36 | CC(C)(C)OC(=O)Nc1cc([N+](=O)[O-])c2ncccc2c1 | 134 to 135 °C
37 | CCCNc1c(CN)cnc2cn[nH]c12 | 97 to 100 °C
38 | CC(CS(=O)(=O)C(C)c1ccccc1)C(=O)O (stereo not given) | 91 to 93 °C
39 | CC(C)(c1ccc(C(C)(C)c2ccc(O)cc2O)cc1)c1ccc(O)cc1O | 110 to 115 °C
40 | CC(C)(CO)c1ccc(C(=O)Nc2cn3cc(C(F)(F)F)ccc3n2)cc1 | 227 to 229 °C
41 | NC(=O)[C@H](O)[C@@H](O)CO | 105 to 107 °C
42 | CN(C)c1nc(N)nc2c1ncn2C1CC(F)C(CO)O1 (stereo not given) | 96 to 100 °C
43 | CC(=O)NCCc1cccc2ccc(OCCCO)cc12 | 141 to 142 °C
44 | Cc1ccc(Nc2nc(-c3ccc(OC(F)(F)F)cc3)cs2)nc1 | 205 to 207 °C
45 | CCC1(O)CC(=O)OCc2c1cc1n(c2=O)Cc2c-1nc1cc(F)ccc1c2-c1ccccc1 (stereo not given) | > 250 °C

Results, then the compound that gave them:

Row | melting point | Structure (SMILES)
46 | 84 °C | CCC(=O)C1=C(O)CC(c2c(C)c(C)c(C)c(C)c2C)CC1=O (stereo not given)
47 | 131 to 132 °C | S=C=Nc1cc(-c2nc(-c3ccco3)no2)ccc1Cl
48 | 206 to 207 °C | CCn1c(=O)c2c(nc(/C=C/c3cccc(OC(C)=O)c3)n2C)n(CC)c1=O
49 | 170 to 174 °C | COc1cccc(OC)c1C(=N)N
50 | 250 °C | COc1cccc(OC)c1-c1ccc(C[C@H](NC(=O)c2c(Cl)cc(-c3ccc[nH]3)cc2Cl)C(=O)O)cc1
51 | 133 to 135 °C | COc1ccc2c(=O)cc(SC)sc2c1
52 | 174 to 177 °C | Cc1nc(C)c(CSC(=O)c2ccccc2)c(O)c1O
53 | 193 to 196 °C | O=c1[nH]c2cc(Cl)ccc2c(=O)c(-c2ccccc2)c1O
54 | 220 to 221 °C | CSc1nn2c(N3C[C@@H](C)N[C@@H](C)C3)cc(C)nc2c1S(=O)(=O)c1ccccc1
55 | 158 to 160 °C | CCc1nnc(CCCOc2c(C)cc(N)c(C=NO)c2C)s1
56 | 83 to 86 °C | CCOC(=O)CCCCCN(C)S(=O)(=O)C1=C(C)NC(C)=C(C(=O)OC)C1c1cccc([N+](=O)[O-])c1 (stereo not given)
57 | > 300 °C | COc1cc2nc(-c3n[nH]cc3NC(=O)N(C)C)[nH]c2cc1Cl
58 | 188 to 189 °C | CC(C)(C)c1cc(C(=O)NCc2ccc(N)cc2)cc(C(C)(C)C)c1O
59 | 81 to 82 °C | COC(=O)c1ccc(C#CCO)cc1
60 | 162 to 164 °C | CCc1c(OC)cc(OC)c2c1C(=O)N(CSc1nnnn1-c1ccccc1)S2(=O)=O
61 | < 50 °C | CCCCc1nn2cc(C(=O)OCC)ccc2c1C(=O)c1ccc(Br)cc1
62 | 81 to 89 °C | COc1ccc(Cn2c(=O)c3c(N4CCN(C)CC4)cc(Cl)cc3n(Cc3ccccc3)c2=O)cc1
63 | 103 to 104 °C | COc1ccc(C(C)(C)C)cc1C=Cc1ccc(CCl)cc1
64 | 230 to 233 °C | Nc1nc2c(sc(=S)n2C2OC(COC(=O)c3ccccc3)C(OC(=O)c3ccccc3)C2OC(=O)c2ccccc2)c(=O)[nH]1 (stereo not given)
65 | > 250 °C | CCCn1cc(-c2nc(C(N)=O)c(N)nc2-c2ccccc2)ccc1=O
66 | 227 to 228 °C | COc1cc2cc(Cl)nc(N3CCN(C(=O)Nc4ccc([N+](=O)[O-])cc4)CC3)c2cc1OC
67 | 312 °C | O=C(O)c1ccc2c(c1)S(=O)(=O)c1ccccc1-2
68 | 130 to 131 °C | COc1ccc(Cc2cc(=O)[nH]c3nc(OCc4ccccn4)ncc23)cc1Cl
69 | 301 to 304 °C | O=C1c2c(O)ccc(O)c2C(=O)c2c(F)ccc(F)c21
70 | > 200 °C | Cc1nc(N2CCc3nc(N)sc3CC2)c([N+](=O)[O-])c(=O)[nH]1
71 | 150 to 151 °C | CCN(CC)c1cccc2nc(Cc3c(Cl)cc(C(F)(F)F)cc3Cl)n(C)c12
72 | 269 to 270 °C | CCOC(=O)c1sc(Oc2ccc(OCc3ccc4ccccc4n3)cc2)c2c1CCc1cnn(C)c1-2
73 | 98 to 102 °C | CN1CC(CN2C(=O)C3(COc4cc5c(cc43)OCO5)c3ccccc32)OC1=O (stereo not given)

Row | melting point | Structure (SMILES)
74 | 109 to 110 °C | CCCCSc1cn(C)cc(-c2cccc(C(F)(F)F)c2)c1=O
75 | 91 to 92 °C | O=C1Cc2cc(Cl)ccc2Oc2ccc(F)cc21
76 | 91 to 92 °C | CC(=O)CCc1ccc(C(=O)c2ccc(Cl)cc2)cc1
77 | 220 to 222 °C | CC(C)(C)OC(=O)N[C@H]1CCN(c2nc3c(cc2F)c(=O)[nH]c(=O)n3C2CC2)C1
78 | 159 to 160 °C | CCOC(=O)c1c(O)c2c(CC)nc(CC)cc2[nH]c1=O
79 | 142 °C | CC(C)(C)OC(=O)CC(=O)CO[C@H]1NC(=O)[C@@H]1NC(=O)c1ccccc1
80 | 276 °C | O=C1N(c2cc(Cl)cc(Cl)c2)C(=O)C2(Cc3ccc(-c4cccnc4)cc3)CCCCN12 (stereo not given)
81 | 130 to 131 °C | Cc1ccccc1[C@@H](CCC(=O)O)Oc1cc(OCc2ccsc2)ccc1[N+](=O)[O-]
82 | 50 to 51 °C | CCOc1cc(Oc2ccc(C(F)(F)F)cn2)ccc1CCCO
83 | 85 to 89 °C | COC(=O)CCC(=O)c1ccc(O)c(Cl)c1
84 | 188 to 190 °C | COc1ccc(C(=O)Nc2ccccc2)cc1NCc1ccc(O)cc1
85 | 237 to 238 °C | CSc1cc(Cl)nn2c(-c3ccnc(N)c3)c(-c3ccc(F)c(C)c3)nc12
86 | 169 to 172 °C | CN(C)C1(c2ccccc2Cl)C(=O)Nc2ccc(Cl)cc21 (stereo not given)
87 | 258 °C | O=C(CN1CCOCC1)Nc1cccc2c1C(=O)c1c-2n[nH]c1-c1ccc(N2CCOCC2)cc1
88 | 245 to 246 °C | Cc1cn2c(=O)c3c(F)cccc3nc2s1
89 | 156 °C | CCCCOC(=O)C(CCc1ccccc1)NC1CSC(c2ccsc2)CN(CC(=O)O)C1=O (stereo not given)
90 | 204 to 206 °C | Cc1[nH]cnc1CSCCNc1ncc(Cc2ccc(Cl)cc2)c(=O)[nH]1
91 | 139 °C | CC(OCn1cc(Cl)cnc1=O)c1ccccc1 (stereo not given)
92 | 125 to 130 °C | O=[N+]([O-])c1cc([N+](=O)[O-])c(Nc2nc(-c3ccc(Cl)cc3Cl)cs2)c(C(F)(F)F)c1
93 | 204 to 207 °C | COc1ccc(-c2sc3cc(OC)ccc3c2C(=O)c2ccc(/C=C/C(=O)O)cc2)cc1
94 | 194 to 196 °C | CCOC(=O)c1cc(-n2c(=O)[nH]c3c(c2=O)CSC3)ccc1Cl
95 | 125 to 126 °C | C/C(=C\c1ccc(OC(C)C)cc1Oc1ncc(C(F)(F)F)cc1Cl)C(=O)NS(=O)(=O)NCC1CCCO1 (stereo not given)
96 | 80 to 81 °C | O=C(Cl)c1cc(Oc2ccc(Br)cc2)cc(C(=O)Cl)c1
97 | 201 °C | COC(=O)C1(N)C(=O)Nc2ccccc2CC1c1ccccc1 (stereo not given)
98 | 206 to 208 °C | N#CC1CCc2c(C(=O)O)cccc21 (stereo not given)
99 | 175 to 177 °C | Nc1cccc(Cc2n[nH]c(=O)c3ccccc23)c1
100 | 236 to 239 °C | NC(Cc1c[nH]c2c(Cl)cccc12)C(=O)O (stereo not given)
